Assay type in all cases: in vivo
The test system of experiment [1] is green peach aphid (Myzus persicae). The experiment is described as follows: Myzus test (spray treatment) (Example B). The settings on record: sprayed Chinese cabbage discs. On the procedure: Myzus Test (Spray Treatment)
(§1) • Solvents: 78 parts by weight of acetone • 1.5 parts by weight of dimethylformamide • Emulsifier: 0.5 part by weight of alkylaryl polyglycol ether
To produce a suitable preparation of active compound, 1 part by weight of active compound is mixed with the stated amounts of solvent and emulsifier, and the concentrate is diluted with emulsifier-containing water to the desired concentration.
Discs of Chinese cabbage (Brassica pekinensis) which are infested by all stages of the green peach aphid (Myzus persicae) are sprayed with a preparation of active compound of the desired concentration.
After the desired period of time, the activity in % is determined. 100% means that all aphids have been killed; 0% means that none of the aphids have been killed.

Experiment [2] relates to larvae of the mustard beetle (Phaedon cochleariae). The experiment is described as follows: Phaedon test (spray treatment) (Example C). The following applies: sprayed Chinese cabbage discs. On the procedure: Phaedon Test (Spray Treatment)
as §1
(§2) To produce a suitable preparation of active compound, 1 part by weight of active compound is mixed with the stated amounts of solvents and emulsifier, and the concentrate is diluted with emulsifier-containing water to the desired concentration.
After the desired period of time, the activity in % is determined. 100% means that all beetle larvae have been killed; 0% means that none of the beetle larvae have been killed.

Experiment [3] relates to greenhouse red spider mite (Tetranychus urticae). Kind of experiment: Tetranychus test (OP-resistance/spray treatment) (Example E). The following applies: sprayed bean leaf discs. On the procedure: Tetranychus Test (OP-resistance/Spray Treatment)
as §1
To prepare a suitable preparation of active compound, 1 part by weight of active compound is mixed with the stated amounts of solvents and emulsifier, and the concentrate is diluted with emulsifier-containing water to the desired concentration.
Discs of bean leaves (Phaseolus vulgaris) which are infested by all stages of the greenhouse red spider mite (Tetranychus urticae) are sprayed with a preparation of active compound of the desired concentration.
After the desired period of time, the activity in % is determined. 100% means that all spider mites have been killed; 0% means that none of the spider mites have been killed.

Experiment [4] concerns caterpillars of the army worm (Spodoptera frugiperda). The experiment is described as follows: Spodoptera frugiperda test (spray treatment) (Example D). The following applies: sprayed maize leaf discs. On the procedure:
Spodoptera Frugiperda Test (Spray Treatment)
as §1, §2
Discs of maize leaves (Zea mays) are sprayed with a preparation of active compound of the desired concentration and, after they have dried, populated with caterpillars of the army worm (Spodoptera frugiperda).
After the desired period of time, the activity in % is determined. 100% means that all caterpillars have been killed; 0% means that none of the caterpillars have been killed.

43 compounds from patent US7569517B2, “4-biphenyl-substituted pyrazolidin-3 5-diones pesticide agent and/or microbicide and/or herbicide” (Bayer CropScience AG, priority 2003, dated 2009) can be followed below.

The structures appear in SMILES notation.

As for `Cc1ccc(-c2ccc(F)cc2)cc1C1(Cl)C(=O)N2CCCCN2C1=O` [Ex. I-1-1], the “Kill rate in % after 5d” value in experiment [1] (100 g/ha) is 100%. Further, the “Kill rate in % after 7d” value in experiment [2] (100 g/ha) turned out to be 100%.

For the compound `Cc1ccc(-c2ccccc2)cc1C1(Cl)C(=O)N2CCCCN2C1=O` [Ex. I-1-3], the “Kill rate in % after 5d” value in experiment [3] (500 g/ha) was 100%.

As for `Cc1ccc(-c2ccc(Cl)cc2)cc1C1(Cl)C(=O)N2CCCCN2C1=O` [Ex. I-1-6], the “Kill rate in % after 7d” value in experiment [2] (500 g/ha) and in experiment [4] (500 g/ha) was 100% throughout.

With `Cc1ccc(-c2ccccc2F)cc1C1(Cl)C(=O)N2CCCCN2C1=O` [Ex. I-1-7], the “Kill rate in % after 5d” value in experiment [1] (500 g/ha) was 90%. Moreover, in experiment [2] (500 g/ha), the “Kill rate in % after 7d” value was 100%.

With `Cc1ccc(-c2cccc(F)c2)cc1C1(Cl)C(=O)N2CCCCN2C1=O` [Ex. I-1-8], the “Kill rate in % after 5d” value in experiment [3] (500 g/ha) came to 100%. In addition, the “Kill rate in % after 7d” value in experiment [4] (500 g/ha) worked out at 100%.

In the case of `Cc1cccc(-c2ccc(C)c(C3(Cl)C(=O)N4CCCCN4C3=O)c2)c1` [Ex. I-1-10], the “Kill rate in % after 5d” value in experiment [3] (500 g/ha) was found to be 100%. For the same compound, the “Kill rate in % after 7d” value in experiment [2] (500 g/ha) is 100%.

With `Cc1ccc(-c2ccc(C)c(C3(Cl)C(=O)N4CCCCN4C3=O)c2)cc1` [Ex. I-1-11], the “Kill rate in % after 7d” value in experiment [2] (500 g/ha) stood at 100%.

With `Cc1ccc(-c2cccc(Cl)c2Cl)cc1C1(Cl)C(=O)N2CCCCN2C1=O` [Ex. I-1-12], in experiment [3] (500 g/ha), the “Kill rate in % after 5d” value was 90%.

On to `Cc1ccc(-c2ccc(Cl)cc2Cl)cc1C1(Cl)C(=O)N2CCCCN2C1=O` [Ex. I-1-13], for which the figures for the “Kill rate in % after 5d” value in experiment [1] (500 g/ha) and in experiment [3] (500 g/ha) were 90% and 100%, respectively.

Regarding `Cc1ccc(-c2cc(Cl)ccc2Cl)cc1C1(Cl)C(=O)N2CCCCN2C1=O` [Ex. I-1-14], the “Kill rate in % after 5d” value in experiment [3] (500 g/ha) was 100%. Further, the “Kill rate in % after 7d” value in experiment [2] (500 g/ha) is on record as 100%.

Turning to `Cc1ccc(-c2ccc(Cl)c(Cl)c2)cc1C1(Cl)C(=O)N2CCCCN2C1=O` [Ex. I-1-15], the “Kill rate in % after 7d” value in experiment [4] (500 g/ha) is reported as 100%.

For `Cc1ccc(-c2ccc(F)cc2F)cc1C1(Cl)C(=O)N2CCCCN2C1=O` [Ex. I-1-17], the “Kill rate in % after 5d” value in experiment [1] (500 g/ha) came to 90%. The “Kill rate in % after 7d” value in experiment [2] (500 g/ha) was 100%.

On to `Cc1ccc(-c2cc(F)ccc2F)cc1C1(Cl)C(=O)N2CCCCN2C1=O` [Ex. I-1-18], for which the “Kill rate in % after 7d” value in experiment [2] (500 g/ha) was 100%.

On to `Cc1ccc(-c2ccc(F)c(Cl)c2)cc1C1(Cl)C(=O)N2CCCCN2C1=O` [Ex. I-1-19], for which the “Kill rate in % after 7d” value in experiment [4] (500 g/ha) is given as 100%.

Consider `Cc1ccc(-c2ccc(C(F)(F)F)cc2)cc1C1(Cl)C(=O)N2CCCCN2C1=O` [Ex. I-1-22], for which the “Kill rate in % after 7d” value in experiment [4] (100 g/ha) is reported as 100%.

Take `Cc1ccc(-c2ccc(OC(F)(F)F)cc2)cc1C1(Cl)C(=O)N2CCCCN2C1=O` [Ex. I-1-29]: the “Kill rate in % after 5d” value in experiment [3] (500 g/ha) stood at 100%. In addition, in experiment [2] (500 g/ha), the “Kill rate in % after 7d” value stood at 100%.

As for `COc1ccc(Cl)cc1-c1ccc(C)c(C2(Cl)C(=O)N3CCCCN3C2=O)c1` [Ex. I-1-34], the “Kill rate in % after 5d” value in experiment [1] (500 g/ha) is reported as 100%.

With `Cc1ccc(-c2ccccc2)cc1C1(Cl)C(=O)N2CCOCCN2C1=O` [Ex. I-2-1], the “Kill rate in % after 7d” value in experiment [2] (500 g/ha) is reported as 100%.

Regarding `Cc1ccc(-c2ccccc2Cl)cc1C1(Cl)C(=O)N2CCOCCN2C1=O` [Ex. I-2-2], the “Kill rate in % after 7d” value in experiment [4] (500 g/ha) is on record as 100%.

Regarding `Cc1ccc(-c2cccc(Cl)c2)cc1C1(Cl)C(=O)N2CCOCCN2C1=O` [Ex. I-2-3], the “Kill rate in % after 7d” value in experiment [4] (500 g/ha) is listed as 100%.

Turning to `Cc1ccc(-c2ccc(Cl)cc2)cc1C1(Cl)C(=O)N2CCOCCN2C1=O` [Ex. I-2-4], in experiment [4] (500 g/ha), the “Kill rate in % after 7d” value was determined as 100%.

In the case of `Cc1ccc(-c2ccccc2F)cc1C1(Cl)C(=O)N2CCOCCN2C1=O` [Ex. I-2-5], the “Kill rate in % after 5d” value in experiment [3] (500 g/ha) amounted to 90%.

For `Cc1ccc(-c2cccc(F)c2)cc1C1(Cl)C(=O)N2CCOCCN2C1=O` [Ex. I-2-6], in experiment [1] (500 g/ha), the “Kill rate in % after 5d” value is 90%. Further, in experiment [2] (500 g/ha), the “Kill rate in % after 7d” value worked out at 100%.

Regarding `Cc1ccc(-c2ccc(F)cc2)cc1C1(Cl)C(=O)N2CCOCCN2C1=O` [Ex. I-2-7], the “Kill rate in % after 5d” value in experiment [3] (100 g/ha) worked out at 90%. Moreover, the “Kill rate in % after 7d” value in experiment [4] (100 g/ha) worked out at 100%.

Take `Cc1cccc(-c2ccc(C)c(C3(Cl)C(=O)N4CCOCCN4C3=O)c2)c1` [Ex. I-2-9]: the “Kill rate in % after 5d” value in experiment [3] (500 g/ha) was determined as 90%.

As for `Cc1ccc(-c2ccc(C)c(C3(Cl)C(=O)N4CCOCCN4C3=O)c2)cc1` [Ex. I-2-10], in experiment [2] (500 g/ha), the “Kill rate in % after 7d” value was determined as 100%.

On to `Cc1ccc(-c2ccc(Cl)cc2Cl)cc1C1(Cl)C(=O)N2CCOCCN2C1=O` [Ex. I-2-12], for which the “Kill rate in % after 7d” value in experiment [2] (500 g/ha) is given as 100%.

For `Cc1ccc(-c2cc(Cl)ccc2Cl)cc1C1(Cl)C(=O)N2CCOCCN2C1=O` [Ex. I-2-13], the “Kill rate in % after 7d” value in experiment [4] (500 g/ha) came out at 100%.

For the compound `Cc1ccc(-c2ccc(Cl)c(Cl)c2)cc1C1(Cl)C(=O)N2CCOCCN2C1=O` [Ex. I-2-14], the “Kill rate in % after 7d” value in experiment [2] (500 g/ha) came to 100%.

For `Cc1ccc(-c2cc(Cl)cc(Cl)c2)cc1C1(Cl)C(=O)N2CCOCCN2C1=O` [Ex. I-2-15], in experiment [2] (500 g/ha), the “Kill rate in % after 7d” value was 100%.

Take `Cc1ccc(-c2ccc(F)cc2F)cc1C1(Cl)C(=O)N2CCOCCN2C1=O` [Ex. I-2-16]: in experiment [1] (500 g/ha), the “Kill rate in % after 5d” value stood at 100%. For the same compound, the “Kill rate in % after 7d” value in experiment [4] (500 g/ha) stood at 100%.

Turning to `Cc1ccc(-c2cc(F)ccc2F)cc1C1(Cl)C(=O)N2CCOCCN2C1=O` [Ex. I-2-17], the “Kill rate in % after 7d” value in experiment [2] (500 g/ha) is 100%.

On to `Cc1ccc(-c2ccc(F)c(Cl)c2)cc1C1(Cl)C(=O)N2CCOCCN2C1=O` [Ex. I-2-18], for which the “Kill rate in % after 5d” value in experiment [1] (500 g/ha) is given as 90%. The “Kill rate in % after 7d” value in experiment [4] (500 g/ha) is 100%.

For `Cc1ccc(-c2ccccc2C(F)(F)F)cc1C1(Cl)C(=O)N2CCOCCN2C1=O` [Ex. I-2-19], the “Kill rate in % after 5d” value in experiment [3] (500 g/ha) was 90%.

Take `Cc1ccc(-c2cccc(C(F)(F)F)c2)cc1C1(Cl)C(=O)N2CCOCCN2C1=O` [Ex. I-2-20]: the “Kill rate in % after 7d” value in experiment [2] (500 g/ha) was 100%.

In the case of `Cc1ccc(-c2ccc(C(F)(F)F)cc2)cc1C1(Cl)C(=O)N2CCOCCN2C1=O` [Ex. I-2-21], in experiment [4] (500 g/ha), the “Kill rate in % after 7d” value was 100%.

As for `COc1ccccc1-c1ccc(C)c(C2(Cl)C(=O)N3CCOCCN3C2=O)c1` [Ex. I-2-22], the “Kill rate in % after 5d” value in experiment [3] (100 g/ha) worked out at 90%.

As to `COc1ccc(Cl)c(-c2ccc(C)c(C3(Cl)C(=O)N4CCOCCN4C3=O)c2)c1` [Ex. I-2-23], the “Kill rate in % after 5d” value in experiment [1] (500 g/ha) was 100%.

As for `Cc1ccc(-c2cccc([N+](=O)[O-])c2)cc1C1(Cl)C(=O)N2CCOCCN2C1=O` [Ex. I-2-27], the “Kill rate in % after 5d” value in experiment [3] (100 g/ha) is given as 100%. Besides, in experiment [2] (500 g/ha), the “Kill rate in % after 7d” value is 100%.

Turning to `Cc1ccc(-c2ccc(OC(F)(F)F)cc2)cc1C1(Cl)C(=O)N2CCOCCN2C1=O` [Ex. I-2-28], the “Kill rate in % after 5d” value in experiment [3] (500 g/ha) was determined as 90%.

Consider `Cc1ccc(-c2ccc(Oc3ccccc3)cc2)cc1C1(Cl)C(=O)N2CCOCCN2C1=O` [Ex. I-2-29], for which the “Kill rate in % after 5d” value in experiment [1] (500 g/ha) was 100%.

`Cc1ccc(-c2ccc(Oc3ccc(Cl)cc3)cc2)cc1C1(Cl)C(=O)N2CCOCCN2C1=O` [Ex. I-2-34]: the “Kill rate in % after 7d” value in experiment [2] (500 g/ha) amounted to 100%.

In the case of `COc1ccc(-c2ccc(C)c(C3(Cl)C(=O)N4CCOCCN4C3=O)c2)cc1Cl` [Ex. I-2-35], the “Kill rate in % after 5d” value in experiment [1] (500 g/ha) is listed as 100%.
